The numbers were not newly measured in patent US8835486B2, “Pharmaceutical formulation containing an HMG-COA reductase inhibitor and method for the preparation thereof” (priority 2006, dated 2014), which cites them from elsewhere.

Structures are written as SMILES.

For the molecule `CC(C)n1c(/C=C/C(O)CC(O)CC(=O)O)c(-c2ccc(F)cc2)c2ccccc21` (stereo not shown) [Fluvastatin], the solubility in water was more than 50 mg/mL.
